# Patent US11447471B2, “α,β-unsaturated amide compound” (KYOWA KIRIN CO., LTD., priority 2017, dated 2022)
# Key:
# Type in all cases: cell-based
# NCI-H226 cells = assay: Cell growth inhibitory effect on human mesothelioma cell line (cell counting kit 8, 6 days); details: NCI-H226, 144 h
# From the text: (§1) NCI-H226 cells, a human mesothelioma cell line (ATCC, CRL-5826), NCI-H322 cells, a human lung cancer cell line (the European Collection of Authenticated Cell Cultures, 95111734), OUTOKO cells, a human ovarian cancer cell line (JCRB cell bank, KRB1048) and […] were each subcultured by keeping the cell density under 80% in a RPMI1640 culture medium with 10% fetal bovine serum (FBS). NCI-H226 cells, NCI-H322 cells and SSP-25 cells were each suspended in the RPMI1640 culture medium mentioned above, and plated to a 96-well flat-bottom plate at 500 cells/well in each well, and incubated at 37° C. in an incubator with 5% CO2 for one day. After the incubation, the evaluation of cell growth inhibitory activity was started. OVTOKO cells were suspended in the RPMI1640 culture medium mentioned above, and plated to a 96-well flat-bottom plate at 250 cells/well in each well, and incubated it at 37° C. in an incubator with 5% CO2 for one day. After the incubation, the evaluation of the cell growth inhibitory activity was started. The next day, a test compound was serially diluted to 5 times of its final concentration in the RPM11640 culture medium mentioned above, and the diluted solution was added to each well. In this case, the final concentration of DMSO in each well was adjusted to 0.1%. After the test compound was added, cells were incubated at 37° C. in an incubator with 5% CO2 for 6 days. At the addition of the test compound and 6 days after the addition, the cell counting measurement was performed using a cell counting kit 8 (made by DOJINDO) according to a protocol equivalent to DOJINDO's recommendation. A reagent contained in the kit was added to each plate and color reaction was performed for 2 or 3 hours at 37° C. in an incubator with 5% CO2. After the reaction, an absorbance at wavelength of 450 nm was measured using a microplate reader. A growth inhibition rate was calculated according to the following formula, from which the concentration of a test compound at which cell growth was inhibited by 50% (GI50 value) was determined.
# NCI-H322 cells = assay: Cell growth inhibitory effect on human lung cancer cell line (cell counting kit 8, 6 days); details: 144 h; human lung cancer cell line NCI-H322, 6 days incubation
# From the text: as §1
# OVTOKO cells = assay: Cell growth inhibitory effect on human ovarian cancer cell line (cell counting kit 8, 6 days); details: 144 h, 6 days incubation
# Procedure, shortened: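 Cells in RPMI1640 with 10% FBS plated at 500 cells/well (OVTOKO 250/well) and cultured one day at 37° C, 5% CO2. Serially diluted compound added (final DMSO 0.1%) for 6 days; viable cells measured at addition and day 6 with CCK-8, absorbance 450 nm. GI50 derived from growth inhibition rate.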
# HuH28 cells = assay: Cell growth inhibitory effect on human liver cancer cell line (cell counting kit 8, 6 days); details: 144 h; human liver cancer cell line HuH28, 6 days incubation
# From the text: as §1
Compound,GI50 (NCI-H226 cells) [nM],GI50 (NCI-H322 cells) [nM],GI50 (OVTOKO cells) [nM],GI50 (HuH28 cells) [nM]
"C=CC(=O)NCc1ccc(N(C)c2ccc(C(F)(F)F)cc2)c2nc(C)oc12 [Compound 269, N-{(2-Methyl-4-[methyl{4-(trifluoromethyl)phenyl}amino]benzo[d]oxazol-7-yl)methyl}acrylamide]",100 to 1000,< 1000,≤ 3000,< 3000
"C=CC(=O)NCc1ccc(Oc2ccc(C#N)cc2)c2nc(C)oc12 [Compound 278, N-[{4-(4-Cyanophenoxy]-2-methylbenzo[d]oxazol-7-yl}methyl)acrylamide]",100 to 1000,< 1000,≤ 3000,< 3000
"C=CC(=O)NCc1ccc(C(O)c2ccc(C(F)(F)F)cc2)c2nc(C)oc12 (centres unmarked) [Compound 268, N-{(4-[Hydroxy{4-(trifluoromethyl)phenyl}methyl]-2-methylbenzo[d]oxazol-7-yl)methyl}acrylamide]",100 to 1000,< 1000,≤ 3000,< 3000
"C=CC(=O)NCc1ccc(Oc2ccc(C(F)(F)F)nc2)c2oc(C)nc12 [Compound 283, N-{(2-Methyl-7-[{6-(trifluoromethyl)pyridin-3-yl}oxy]benzo[d]oxazol-4-yl)methyl}acrylamide]",< 100,< 1000,≤ 3000,< 3000
"C=CC(=O)NCc1ccc(Oc2ccc(C(F)(F)F)cn2)c2nc(C)oc12 [Compound 250, N-{(2-Methyl-4-[{5-(trifluoromethyl)pyridin-2-yl}oxy]benzo[d]oxazol-7-yl)methyl}acrylamide]",< 100,< 1000,≤ 3000,< 3000
C=CC(=O)Nc1cncc(OCC2CCC(F)(F)CC2)c1 [Compound 192],100 to 1000,< 1000,≤ 3000,< 3000
"C=CC(=O)N[C@@H]1CC[C@H](Oc2ccc(C(F)(F)F)cn2)c2nc(Cl)ccc21 (relative stereo) [Compound 189, cis-N-(2-Chloro-8-[{5-(trifluoromethyl)pyridin-2-yl}oxy]-5,6,7,8-tetrahydroquinolin-5-yl)acrylamide]",< 100,< 1000,≤ 3000,< 3000
"C=CC(=O)NCc1ccc(Oc2ccc(Cl)cc2)c2nc(C)oc12 [Compound 281, N-[{4-(4-Chlorophenoxy]-2-methylbenzo[d]oxazol-7-yl}methyl)acrylamide]",< 100,< 1000,≤ 3000,< 3000
"C=CC(=O)N[C@@H]1CC[C@H](Oc2ccc(C(F)(F)F)cc2)c2nc(C3CC3)ccc21 (relative stereo) [Compound 185, cis-N-[2-Cyclopropyl-8-{4-(trifluoromethyl)phenoxy}-5,6,7,8-tetrahydroquinolin-5-yl]acrylamide]",< 100,< 1000,≤ 3000,< 3000

# More lines, now with the values ahead:
GI50 (NCI-H226 cells) [nM],GI50 (NCI-H322 cells) [nM],GI50 (OVTOKO cells) [nM],GI50 (HuH28 cells) [nM],Compound
< 100,< 1000,≤ 3000,< 3000,"C=CC(=O)NCc1ccc(Oc2ccc(C(F)(F)F)cc2)c2nc(C)sc12 [Compound 256, N-([2-Methyl-4-{4-(trifluoromethyl)phenoxy}benzo[d]thiazol-7-yl]methyl)acrylamide]"
< 100,< 1000,≤ 3000,< 3000,"C=CC(=O)NC1CC[C@H](Oc2cccc(Cl)c2)c2ncccc21 (stereo in doubt) [Compound 68, cis-N-{8-(3-Chlorophenoxy)-5,6,7,8-tetrahydroquinolin-5-yl}acrylamide]"
< 100,< 1000,≤ 3000,< 3000,"C=CC(=O)NCc1ccc(Oc2ccc(C(F)(F)F)cc2)c2ncoc12 [Compound 247, N-([4-{4-(Trifluoromethyl)phenoxy}benzo[d]oxazol-7-yl]methyl)acrylamide]"
< 100,< 1000,≤ 3000,< 3000,"C=CC(=O)NCc1ccc(Oc2ccc(C(F)(F)F)cn2)c2nc(C)sc12 [Compound 286, N-{(2-Methyl-4-[{5-(trifluoromethyl)pyridin-2-yl}oxy]benzo[d]thiazol-7-yl)methyl}acrylamide]"
< 100,< 1000,≤ 3000,< 3000,"C=CC(=O)NCc1ccc(Oc2ccc(C(F)(F)F)cn2)c2oc(C)nc12 [Compound 284, N-{(2-Methyl-7-[{5-(trifluoromethyl)pyridin-2-yl}oxy]benzo[d]oxazol-4-yl)methyl}acrylamide]"
< 100,< 1000,≤ 3000,< 3000,"C=CC(=O)NCc1ccc(Oc2cccc(C(F)(F)F)c2)c2nc(C)oc12 [Compound 279, N-([2-Methyl-4-{3-(trifluoromethyl)phenoxy}benzo[d]oxazol-7-yl]methyl) acrylamide]"
< 100,< 1000,≤ 3000,< 3000,"C=CC(=O)NCc1ccc(Oc2ccc(C(F)(F)F)c(F)c2)c2nc(C)oc12 [Compound 277, N-([4-{3-Fluoro-4-(trifluoromethyl)phenoxy}-2-methylbenzo[d]oxazol-7-yl]methyl)acrylamide]"
< 100,< 1000,≤ 3000,< 3000,"C=CC(=O)NCc1ccc(Oc2ccc(OC)cc2)c2nc(C)oc12 [Compound 280, N-[{4-(4-Methoxyphenoxy]-2-methylbenzo[d]oxazol-7-yl}methyl)acrylamide]"
< 100,< 1000,≤ 3000,< 3000,"C=CC(=O)NCc1ccc(Oc2ccc(C(F)(F)F)cc2)c2nc(CC)oc12 [Compound 244, N-([2-Ethyl-4-{4-(trifluoromethyl)phenoxy}benzo[d]oxazol-7-yl]methyl)acrylamide]"
< 100,< 1000,≤ 3000,< 3000,"C=CC(=O)N[C@@H]1CC[C@H](Oc2ccc(C(F)(F)F)c(F)c2)c2nc(Cl)ccc21 (relative stereo) [Compound 187, cis-N-[2-Chloro-8-{3-fluoro-4-(trifluoromethyl)phenoxy}-5,6,7,8-tetrahydroquinolin-5-yl]acrylamide]"
< 100,< 1000,≤ 3000,< 3000,"C=CC(=O)NCc1ccc(Oc2ccc(C(F)(F)F)cn2)c2sc(C)nc12 [Compound 288, N-{(2-Methyl-7-[{5-(trifluoromethyl)pyridin-2-yl}oxy]benzo[d]thiazol-4-yl)methyl}acrylamide]"
< 100,< 1000,≤ 3000,< 3000,"C=CC(=O)NCc1ccc(Oc2ccc(C(F)(F)F)nc2)c2nc(C)sc12 [Compound 285, N-{(2-Methyl-4-[{6-(trifluoromethyl)pyridin-3-yl}oxy]benzo[d]thiazol-7-yl)methyl}acrylamide]"
< 100,< 1000,≤ 3000,< 3000,"C=CC(=O)NCc1ccc(Oc2ccc(C(F)(F)F)cc2)c2nc(C)oc12 [Compound 243, N-([2-Methyl-4-{4-(trifluoromethyl)phenoxy}benzo[d]oxazol-7-yl]methyl) acrylamide]"
< 100,< 1000,≤ 3000,< 3000,"C=CC(=O)N[C@@H]1CC[C@H](Oc2ccc(C(F)(F)F)cc2)c2nc(OC)ccc21 (relative stereo) [Compound 179, cis-N-[2-Methoxy-8-{4-(trifluoromethyl)phenoxy}-5,6,7,8-tetrahydroquinolin-5-yl]acrylamide]"
